Values joined by “and” are separate entries in the source; they are usually repeats but may differ in a detail not shown here. Identical values can stand only once. Like-named read-outs stand apart in the source and are kept apart here.
What was measured:
[1] = system: SARS-CoV-2 gamma strain hCoV-19/Japan/TY7-501/2021; type: in vivo, BALB/c mice
in vivo = experiment: in vivo; parameters: species or system mice; settings: mouse plasma, simulated; for Cmax / AUC(0-t): BALB/c, mouse, in vivo, po; for AUC(0-t): read-out: AUC0–48h
[2] = Adverse effects in rodents at exposure of the maximum dose; type: in vivo; settings: same exposure conditions as the maximum dose administered to mice
[3] = system: SARS-CoV-2 gamma strain (hCoV-19/Japan/TY7-501/2021); settings: cited from earlier work; for Viral titer in lungs: twice daily for 2 d, Day 2, individual mice 1-5, previously reported ref 12
[4] = system: SARS-CoV-2 gamma strain (hCoV-19/Japan/TY7-501/2021); parameters: method as in earlier work; settings: extrapolated to 100% mouse serum, cited from earlier work
[5] = 8 mg/kg, thrice daily for 2 d, 8 mg/kg oral
[6] = 8 mg/kg, twice daily for 2 d, 8 mg/kg oral
[7] = 16 mg/kg, once daily for 2 d, 16 mg/kg oral
[8] = 16 mg/kg, thrice daily for 2 d, 16 mg/kg oral
[9] = 16 mg/kg, twice daily for 2 d, 16 mg/kg oral
[10] = 32 mg/kg, once daily for 2 d, 32 mg/kg oral
[11] = 32 mg/kg, one shot, 32 mg/kg oral
[12] = 32 mg/kg, thrice daily for 2 d, 32 mg/kg oral
[13] = 32 mg/kg, twice daily for 2 d, 32 mg/kg oral
[14] = 64 mg/kg, once daily for 2 d, 64 mg/kg oral
[15] = 64 mg/kg, one shot, 64 mg/kg oral
[16] = 64 mg/kg, thrice daily for 2 d, 64 mg/kg oral
[17] = 64 mg/kg, twice daily for 2 d, 64 mg/kg oral

SMILES: Cn1cnc(Cn2c(=O)[nH]/c(=N\c3cc4cn(C)nc4cc3Cl)n(Cc3cc(F)c(F)cc3F)c2=O)n1 [ensitrelvir, ensitrelvir fumaric acid]
- Antiviral activity when administration delayed 72 h post-infection ([1]; given during the viral clearance phase): dose-dependent antiviral activity
- Dose that significantly lowered lung viral titers compared to vehicle ([1]; mouse, in vivo): ≥ 8 mg/kg
- Cmax (in vivo; [5]): 21500 ng/mL
- AUC(0-t) (in vivo; [5]): 657 µg·h/mL
- Cmax (in vivo; [6]): 18100 ng/mL
- AUC(0-t) (in vivo; [6]): 446 µg·h/mL
- Cmax (in vivo; [7]): 38800 ng/mL
- AUC(0-t) (in vivo; [7]): 475 µg·h/mL
- Cmax (in vivo; [8]): 47600 ng/mL
- AUC(0-t) (in vivo; [8]): 1390 µg·h/mL
- Cmax (in vivo; [9]): 41300 ng/mL
- AUC(0-t) (in vivo; [9]): 941 µg·h/mL
- Cmax (in vivo; [10]): 72500 ng/mL
- AUC(0-t) (in vivo; [10]): 1020 µg·h/mL
- Cmax (in vivo; [11]): 72400 ng/mL
- AUC(0-t) (in vivo; [11]): 510 µg·h/mL
- Cmax (in vivo; [12]): 96000 ng/mL
- AUC(0-t) (in vivo; [12]): 2960 µg·h/mL
- Cmax (in vivo; [13]): 79700 ng/mL
- AUC(0-t) (in vivo; [13]): 2010 µg·h/mL
- Cmax (in vivo; [14]): 160000 ng/mL
- AUC(0-t) (in vivo; [14]): 2670 µg·h/mL
- Cmax (in vivo; [15]): 159000 ng/mL
- AUC(0-t) (in vivo; [15]): 1340 µg·h/mL
- Cmax (in vivo; [16]): 232000 ng/mL
- AUC(0-t) (in vivo; [16]): 7650 µg·h/mL
- Cmax (in vivo; [17]): 188000 ng/mL
- AUC(0-t) (in vivo; [17]): 5230 µg·h/mL
- C48h (in vivo; once daily for 2 d, 16 mg/kg oral): 75.8 ng/mL
- C48h (in vivo; once daily for 2 d, 32 mg/kg oral): 210 ng/mL
- C48h (in vivo; once daily for 2 d, 64 mg/kg oral): 1290 ng/mL
- C48h (in vivo; one shot, 32 mg/kg oral): 0.0591 ng/mL
- C48h (in vivo; one shot, 64 mg/kg oral): 1.11 ng/mL
- C48h (in vivo; thrice daily for 2 d, 8 mg/kg oral): 5740 ng/mL
- C48h (in vivo; thrice daily for 2 d, 16 mg/kg oral): 11,600 ng/mL
- C48h (in vivo; thrice daily for 2 d, 32 mg/kg oral): 30,000 ng/mL
- C48h (in vivo; thrice daily for 2 d, 64 mg/kg oral): 88,300 ng/mL
- C48h (in vivo; twice daily for 2 d, 8 mg/kg oral): 1840 ng/mL
- C48h (in vivo; twice daily for 2 d, 16 mg/kg oral): 3760 ng/mL
- C48h (in vivo; twice daily for 2 d, 32 mg/kg oral): 11,400 ng/mL
- C48h (in vivo; twice daily for 2 d, 64 mg/kg oral): 42,000 ng/mL
- Adverse effects [2]: No adverse effects were observed
- Viral titer in lungs ([3]; 8 mg/kg oral from 24 h post-infection, 8 mg/kg): 5.80 log10 TCID50/mL (2×) and 5.97 log10 TCID50/mL (2×) and 5.63 log10 TCID50/mL
- Viral titer in lungs ([3]; 16 mg/kg oral from 24 h post-infection, 16 mg/kg): 5.80 log10 TCID50/mL and 5.63 log10 TCID50/mL and 5.53 log10 TCID50/mL (2×) and 4.97 log10 TCID50/mL
- Viral titer in lungs ([3]; 32 mg/kg oral from 24 h post-infection, 32 mg/kg): 4.30 log10 TCID50/mL and 3.80 log10 TCID50/mL and 4.63 log10 TCID50/mL (3×)
- Viral titer in lungs ([3]; 64 mg/kg oral from 24 h post-infection, 64 mg/kg): 2.80 log10 TCID50/mL and 3.80 log10 TCID50/mL (2×) and 3.63 log10 TCID50/mL and 3.30 log10 TCID50/mL
- Mouse PA-EC50 [4]: 2.09 µg/mL
- EC50 ([4]; read-out: Mouse PA-EC50): 3.93 µM

SMILES: CC(C)(C)[C@H](NC(=O)C(F)(F)F)C(=O)N1C[C@H]2[C@@H]([C@H]1C(=O)N[C@H](C#N)C[C@@H]1CCNC1=O)C2(C)C [nirmatrelvir, reference compound]
- Antiviral activity in this model ([3]; delayed-treatment mouse model): demonstrates antiviral activity

From PMC10612060 (Viruses, 2023)
